Holding throughout (assay type): cell-based
The target of assay [1] is Neuronal acetylcholine receptor; alpha2/beta2 (Rattus norvegicus) (UniProt P12389+P12390). As to the kind of experiment: Inhibition of rat alpha2/beta2 nAChR expressed in Xenopus laevis oocytes assessed as inhibition of acetylcholine-induced current at 10 uM by two electrode voltage-clamp assay. To be noted: Oocyte. (Two-electrode voltage clamp holds a large cell at a set potential and records current.)

Assay [2] has as its target T1, Neuronal acetylcholine receptor; alpha4/beta2 (Rattus norvegicus) (UniProt P09483+P12390). Nature of the assay: Inhibition of rat alpha4/beta4 nAChR expressed in Xenopus laevis oocytes assessed as inhibition of acetylcholine-induced current at 10 uM by two electrode voltage-clamp assay. To be noted: Oocyte.
Assay [3] deals with Nicotinic acetylcholine receptor alpha9/alpha10 (Rattus norvegicus) (UniProt P43144+Q9JLB5). Nature of the assay: Inhibition of rat alpha9/alpha10 nAChR expressed in Xenopus laevis oocytes assessed as inhibition of acetylcholine-induced current at 10 uM by two electrode voltage-clamp assay. As to conditions: Oocyte.
Assay [4] relates to Oocyte. As to the kind of experiment: Inhibition of mouse alpha1/beta1/delta/epsilon nAChR expressed in Xenopus laevis oocytes assessed as inhibition of acetylcholine-induced current at 10 uM by two electrode voltage-clamp assay.
For assay [5], the target named is Nicotinic acetylcholine receptor alpha6/alpha3/beta4 (Homo sapiens) (UniProt P30926+P32297+Q15825). As to the kind of experiment: Inhibition of human alpha6/alpha3/beta4 nAChR expressed in Xenopus laevis oocytes at 10 uM. To be noted: Oocyte.
In assay [6] the target is Neuronal acetylcholine receptor; alpha3/beta4 (Homo sapiens) (UniProt P30926+P32297). As to the kind of experiment: Inhibition of human alpha3/beta4 nAChR expressed in Xenopus laevis oocytes at 10 uM. As to conditions: Oocyte.
Assay [7] concerns the target Neuronal acetylcholine receptor; alpha9/alpha10 (Homo sapiens) (UniProt Q9UGM1+Q9GZZ6). As to the kind of experiment: Inhibition of human alpha9/alpha10 nAChR expressed in Xenopus laevis oocytes at 10 uM. As to conditions: Oocyte.
In assay [8] the target is Neuronal acetylcholine receptor; alpha3/beta2 (Homo sapiens) (UniProt P17787+P32297). Nature of the assay: Inhibition of human alpha3/beta2 nAChR expressed in Xenopus laevis oocytes at 10 uM. To be noted: Oocyte.
Assay [9] concerns the target Neuronal acetylcholine receptor subunit alpha-7 (Rattus norvegicus) (UniProt Q05941). As to the kind of experiment: Inhibition of rat alpha7 nAChR expressed in Xenopus laevis oocytes assessed as inhibition of acetylcholine-induced current at 10 uM by two electrode voltage-clamp assay. As to conditions: Oocyte.
Assay [10] concerns the target Neuronal acetylcholine receptor; alpha4/beta2 (Homo sapiens) (UniProt P17787+P43681). Nature of the assay: Inhibition of human alpha4/beta2 nAChR expressed in Xenopus laevis oocytes at 10 uM. As to conditions: Oocyte.
The target of assay [11] is Neuronal acetylcholine receptor; alpha3/beta2 (Rattus norvegicus) (UniProt P04757+P12390). Nature of the assay: Inhibition of rat alpha3/beta2 nAChR expressed in Xenopus laevis oocytes assessed as inhibition of acetylcholine-induced current at 10 uM by two electrode voltage-clamp assay. To be noted: Oocyte.
Assay [12] concerns Oocyte. As to the kind of experiment: Inhibition of rat alpha6/alpha3/beta2/beta3 nAChR expressed in Xenopus laevis oocytes assessed as inhibition of acetylcholine-induced current at 10 uM by two electrode voltage-clamp assay.
The target of assay [13] is Neuronal acetylcholine receptor subunit alpha-7 (Homo sapiens) (UniProt P36544). Nature of the assay: Inhibition of human alpha7 nAChR expressed in Xenopus laevis oocytes at 10 uM. To be noted: Oocyte.
Chain of Neuronal acetylcholine receptor subunit alpha-7 (Homo sapiens) (P36544 whole entry): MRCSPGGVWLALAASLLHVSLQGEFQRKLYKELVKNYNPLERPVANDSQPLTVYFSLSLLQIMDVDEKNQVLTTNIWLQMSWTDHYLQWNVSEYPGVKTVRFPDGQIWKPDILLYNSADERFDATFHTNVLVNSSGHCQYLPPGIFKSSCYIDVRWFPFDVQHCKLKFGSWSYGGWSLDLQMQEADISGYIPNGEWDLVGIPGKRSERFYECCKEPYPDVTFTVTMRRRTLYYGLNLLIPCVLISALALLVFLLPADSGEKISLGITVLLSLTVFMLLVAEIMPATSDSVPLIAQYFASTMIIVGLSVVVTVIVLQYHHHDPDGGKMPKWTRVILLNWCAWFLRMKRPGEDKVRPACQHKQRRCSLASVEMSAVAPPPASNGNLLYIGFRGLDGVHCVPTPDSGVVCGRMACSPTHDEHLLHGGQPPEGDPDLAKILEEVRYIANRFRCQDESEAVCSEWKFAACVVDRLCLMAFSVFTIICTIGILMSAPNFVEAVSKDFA
Assay [14] addresses Neuronal acetylcholine receptor; alpha2/beta4 (Homo sapiens) (UniProt P30926+Q15822). As to the kind of experiment: Inhibition of human alpha2/beta4 nAChR expressed in Xenopus laevis oocytes at 10 uM. To be noted: Oocyte.
Assay [15] has as its target Nicotinic acetylcholine receptor alpha6/alpha3/beta4 (Rattus norvegicus) (UniProt P04757+P12392+P43143). Nature of the assay: Inhibition of rat alpha6/alpha3/beta4 nAChR expressed in Xenopus laevis oocytes assessed as inhibition of acetylcholine-induced current at 10 uM by two electrode voltage-clamp assay. To be noted: Oocyte.
Assay [16] relates to Oocyte. Nature of the assay: Inhibition of rat alpha2/beta4 nAChR expressed in Xenopus laevis oocytes assessed as inhibition of acetylcholine-induced current at 10 uM by two electrode voltage-clamp assay.
Assay [17] has as its target Neuronal acetylcholine receptor; alpha3/beta4 (Rattus norvegicus) (UniProt P04757+P12392). As to the kind of experiment: Inhibition of rat alpha3/beta4 nAChR expressed in Xenopus laevis oocytes assessed as inhibition of acetylcholine-induced current at 10 uM by two electrode voltage-clamp assay. To be noted: Oocyte.
The test system of assay [18] is Oocyte. As to the kind of experiment: Inhibition of human alpha2/beta2 nAChR expressed in Xenopus laevis oocytes at 10 uM.
The target in assay [19] is Neuronal acetylcholine receptor subunit alpha-7 (Rattus norvegicus) (UniProt Q05941). Nature of the assay: Inhibition of rat alpha7 nAChR expressed in Xenopus laevis oocytes assessed as inhibition of acetylcholine-induced current at 100 nM preincubated with compound for 1 hr followed by compound washout and measured for 20 mins by two electrode voltage-clamp assay. As to conditions: Oocyte.
Chain of Neuronal acetylcholine receptor subunit alpha-7 (Rattus norvegicus) (Q05941 whole entry): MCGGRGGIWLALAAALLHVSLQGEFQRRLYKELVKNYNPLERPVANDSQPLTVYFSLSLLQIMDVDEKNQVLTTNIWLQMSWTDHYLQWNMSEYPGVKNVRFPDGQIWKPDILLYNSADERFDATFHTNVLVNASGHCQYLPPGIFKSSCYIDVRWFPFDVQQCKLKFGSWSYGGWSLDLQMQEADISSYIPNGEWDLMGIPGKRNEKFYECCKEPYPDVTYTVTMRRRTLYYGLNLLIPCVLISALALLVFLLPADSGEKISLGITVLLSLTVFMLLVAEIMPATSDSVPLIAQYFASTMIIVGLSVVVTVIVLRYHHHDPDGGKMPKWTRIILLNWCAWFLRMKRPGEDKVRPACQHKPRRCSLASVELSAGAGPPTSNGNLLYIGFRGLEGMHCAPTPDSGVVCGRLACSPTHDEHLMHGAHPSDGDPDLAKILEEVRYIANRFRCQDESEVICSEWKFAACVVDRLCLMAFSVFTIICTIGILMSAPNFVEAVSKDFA

The target of assay [20] is Neuronal acetylcholine receptor; alpha4/beta4 (Homo sapiens) (UniProt P30926+P43681). Nature of the assay: Inhibition of human alpha4/beta4 nAChR expressed in Xenopus laevis oocytes at 10 uM. To be noted: Oocyte.
For assay [21], the system named is Oocyte. As to the kind of experiment: Inhibition of human alpha6/alpha3/beta2/beta3 nAChR expressed in Xenopus laevis oocytes at 10 uM.
In assay [22] the target is T1, Neuronal acetylcholine receptor; alpha4/beta2 (Rattus norvegicus). Nature of the assay: Inhibition of rat alpha4/beta2 nAChR expressed in Xenopus laevis oocytes assessed as inhibition of acetylcholine-induced current at 10 uM by two electrode voltage-clamp assay. As to conditions: Oocyte.
Assay [23] can be described thus: Inhibition of rat alpha2/beta4 nAChR expressed in Xenopus laevis oocytes assessed as inhibition of acetylcholine-induced current by two electrode voltage-clamp assay. As to conditions: Oocyte.
Assay [24] in a line: Inhibition of rat alpha6/alpha3/beta2/beta3 nAChR expressed in Xenopus laevis oocytes assessed as inhibition of acetylcholine-induced current by two electrode voltage-clamp assay. To be noted: Oocyte.
Assay [25] in a line: Inhibition of mouse alpha1/beta1/delta/epsilon nAChR expressed in Xenopus laevis oocytes assessed as inhibition of acetylcholine-induced current by two electrode voltage-clamp assay. To be noted: Oocyte.

Active and inactive are the calls of the source. No cut-off for these calls is given here. Where a SMILES comes first, the peptide text is derived from it. Bridges are numbered along the chain shown (N, C = ends). [ ]: non-standard residue; d: D form. ξ: configuration not given here. ξD = NC(CC(=O)O)C(=O)O

On to `CC[C@H](C)[C@@H]1NC(=O)[C@H](CC(=O)O)NC(=O)[C@@H]2CCCN2C(=O)[C@H](CC(N)=O)NC(=O)[C@H](CCC(N)=O)NC(=O)[C@H](CC(C)C)NC(=O)[C@H]([C@@H](C)CC)NC(=O)[C@@H]2CSSC[C@H](NC(=O)[C@@H](N)CC(=O)O)C(=O)N[C@@H](CSSC[C@@H](C(N)=O)NC1=O)C(=O)N[C@@H](CO)C(=O)N[C@@H](CCC(=O)O)C(=O)N1CCC[C@H]1C(=O)N1CCC[C@H]1C(=O)N2` (H-DCCSEPPCILQNPDIC-NH2; disulfide 2-8, 3-16), for which the inhibition result (in assay [1]; in [2]; in assay [3]; in the assay on Oocyte [4]; in [5]; in [6]) was “inactive” in each case. The inhibition result (in assay [7]; in assay [8]; in assay [9]; in [10]; in assay [11]; in the assay with Oocyte [12]) was “inactive” in each case. Further, the inhibition result (in assay [13]; in [14]; in [15]; in the assay on Oocyte [16]; in assay [17]; with Oocyte [18]) was “inactive” each time. Further, the inhibition result (in [19]; in assay [20]; in the assay with Oocyte [21]; in assay [22]) was “inactive” throughout.
By IC50 is commonly meant the concentration at which inhibition is half-maximal. Regarding `CC[C@H](C)[C@@H]1NC(=O)[C@H](CC(=O)O)NC(=O)[C@@H]2CCCN2C(=O)[C@H](CC(N)=O)NC(=O)[C@H](CCC(N)=O)NC(=O)[C@H](CC(C)C)NC(=O)[C@H]([C@@H](C)CC)NC(=O)[C@@H]2CSSC[C@H](NC(=O)C(N)CC(=O)O)C(=O)N[C@@H](CSSC[C@@H](C(N)=O)NC1=O)C(=O)N[C@@H](CO)C(=O)N[C@@H](C)C(=O)N1CCC[C@H]1C(=O)N1CCC[C@H]1C(=O)N2` (stereo not given in full) (H-[ξD]CCSAPPCILQNPDIC-NH2; disulfide 2-8, 3-16), the IC50 in assay [23] was greater than 10 µM; in [24] it was 0.112 µM; in [25] it was greater than 10 µM.
